Here are results for one molecule from patent US20240310361A1, “METHOD OF […] RESPONSE OF CELL GROUP TO TEST SUBSTANCE” (CANON KABUSHIKI KAISHA, priority 2023, published 2024).

The assay deals with PBMCs. As to the kind of experiment: Calcium-derived fluorescence check of immobilized Fluo-4-stained PBMCs with a calcium ionophore. The assay is classed as cell-based. Particulars: final concentration 1 μg/mL; PBMCs immobilized on BAM-modified glass bottom dish; FIG. 8/9. Here is the method: It is found from FIG. 7 that the PBMCs can be immobilized under a dense state at positions subjected to the BAM modification. […] It was able to be recognized that the cells were immobilized so as to satisfy the condition. In addition, to recognize whether or not fluorescence derived from calcium was able to be observed with the immobilized cells, a calcium ionophore (A23187) was added at a final concentration of 1 μg/mL. […] FIG. 8 is a fluorescence image before the addition of the calcium ionophore, and FIG. 9 is a fluorescence image after the addition.
In this Example, the fluorescence images were acquired with an inverted microscope (TE200-U, manufactured by Nikon Corporation), a CCD camera (EM-CCD DIGITAL CAMERA/C9100-13, manufactured by Hamamatsu Photonics K.K.), and a filter set (excitation: from 450 nm to 490 nm, DM: 505 nm, fluorescence: 520 nm).
Floating PBMCs were recovered from the PBMCs cultured overnight, and 7 mL of PBS was added thereto, followed by centrifugation at 300 G for 8 minutes. The supernatant was removed, and the residue was suspended in 10 mL of PBS, followed by the counting of a cell number. […]

As for `CNc1ccc2oc(C[C@H]3O[C@@]4(CC[C@H]3C)O[C@H]([C@H](C)C(=O)c3ccc[nH]3)[C@H](C)C[C@H]4C)nc2c1C(=O)O` [A23187], the “fluorescence derived from calcium in immobilized cells” value is “fluorescence was able to be observed in each of substantially all the immobilized PBMCs”.
